Paper PMC10779535, “Design and Synthesis of D3R Bitopic Ligands with Flexible Secondary Binding Fragments: Radioligand Binding and Computational Chemistry Studies” (Molecules, 2023)
Like-named read-outs stand apart in the source and are kept apart here.

Key:
[1] = target: T1, D3R (Homo sapiens, UniProt P35462); test: D3R radioligand binding assay ([125I]IABN, HEK cells); design: expressed in transfected cells; conditions: for D2R/D3R Ratio: (Ki for D2R)/(Ki for D3R), D3R versus D2R selectivity (fold); for Ki: human D3 expressed in HEK cells, [125I]IABN radioligand, at least three experiments, HCl salts, read-out: Ki ± SEM D3R
Experimental: (§1) The receptor binding assay for the D2R and the D3R and the β-arrestin recruitment assay for the D3R were performed by following the previously reported methods.

[2] = target: T2, human D2 (Homo sapiens, UniProt P14416); test: D2R radioligand binding assay ([125I]IABN, HEK cells); conditions: human D2 expressed in HEK cells, [125I]IABN radioligand, at least three experiments, HCl salts; read-out: Ki ± SEM D2R
T2 construct: expressed in transfected cells
Experimental: as §1

[3] = target: T1, D3R; test: β-arrestin competition (recruitment) assay against dopamine; format: cell-based; conditions: competition with dopamine (30 nM) for the D3R, at least three experiments; read-out: β-Arrestin Assay IC50 ± SEM
Experimental: Compounds having a longer aliphatic linker ((R,S)-trans-2b–d) have a similar IC50 value in this assay. As expected, the IC50 value of β-arrestin assay parallels the Ki value in the D3R binding assay. It is of interest to note that the potency of (R,S)-trans-2a in the β-arrestin assay is higher than its potency in the in vitro binding assay for the D3R.
as §1

[4] = target: D2R; conditions: cited from earlier work
[5] = target: T1, D3R; design: method as in PMID 33918451; conditions: MDS, Fallypride; cited from earlier work
[6] = target: T1, D3R; conditions: cited from earlier work; for Ki: read-out: D3R affinity
[7] = Figure 1, PET radiotracers, read-out: D2R affinity

T2 sequence (P14416 whole entry): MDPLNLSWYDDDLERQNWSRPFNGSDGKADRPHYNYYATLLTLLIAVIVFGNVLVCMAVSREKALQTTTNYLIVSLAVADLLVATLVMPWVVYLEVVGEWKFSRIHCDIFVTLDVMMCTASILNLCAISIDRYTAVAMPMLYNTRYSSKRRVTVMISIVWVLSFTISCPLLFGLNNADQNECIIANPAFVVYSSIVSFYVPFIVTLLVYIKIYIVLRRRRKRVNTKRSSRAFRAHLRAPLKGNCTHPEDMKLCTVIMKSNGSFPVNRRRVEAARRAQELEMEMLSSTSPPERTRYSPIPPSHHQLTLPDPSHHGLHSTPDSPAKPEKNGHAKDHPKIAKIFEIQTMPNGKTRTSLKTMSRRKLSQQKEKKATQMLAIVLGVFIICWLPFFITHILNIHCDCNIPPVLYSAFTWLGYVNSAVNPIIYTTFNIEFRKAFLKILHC
T1 sequence (P35462 whole entry): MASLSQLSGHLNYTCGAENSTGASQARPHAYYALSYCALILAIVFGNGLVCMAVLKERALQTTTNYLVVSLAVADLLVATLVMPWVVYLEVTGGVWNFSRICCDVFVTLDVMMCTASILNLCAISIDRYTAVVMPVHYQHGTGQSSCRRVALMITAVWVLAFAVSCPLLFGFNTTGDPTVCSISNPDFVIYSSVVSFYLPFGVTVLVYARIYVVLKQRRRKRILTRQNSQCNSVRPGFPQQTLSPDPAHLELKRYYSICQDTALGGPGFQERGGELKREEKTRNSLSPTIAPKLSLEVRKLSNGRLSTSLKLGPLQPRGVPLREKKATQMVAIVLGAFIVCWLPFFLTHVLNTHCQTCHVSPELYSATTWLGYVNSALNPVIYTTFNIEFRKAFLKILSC

SMILES	D2R/D3R Ratio [1]	Ki [1] [nM]	Ki [2] [nM]	IC50 [3] [nM]	other results
C=CCN1C[C@H](OC(=O)NCCCCCCCCc2ccsc2)C[C@H]1CNC(=O)c1cc(CCCF)cc(OC)c1OC [(R,S)-trans-2j, (3R,5S)-1-allyl-5-((5-(3-fluoropropyl)-2,3-dimethoxybenzamido)methyl)pyrrolidin-3-yl (8-(thiophen-3-yl)octyl)carbamate]	5.0	2.1 ± 0.1	10.5 ± 2	–	–
C=CCN1C[C@H](OC(=O)NCCCCCCc2cccs2)C[C@H]1CNC(=O)c1cc(CCCF)cc(OC)c1OC [(R,S)-trans-2h, (3R,5S)-1-allyl-5-((5-(3-fluoropropyl)-2,3-dimethoxybenzamido)methyl)pyrrolidin-3-yl (6-(thiophen-2-yl)hexyl)carbamate]	6.2	0.6 ± 0.1	3.9 ± 0.4	–	–
C=CCN1C[C@@H](OC(=O)NCCCCCCCCCC)C[C@@H]1CNC(=O)c1cc(CCCF)cc(OC)c1OC [(S,R)-trans-2d, (3S,5R)-1-allyl-5-((5-(3-fluoropropyl)-2,3-dimethoxybenzamido)methyl)pyrrolidin-3-yl decylcarbamate]	0.7	2630 ± 815	1940 ± 380	> 1000	–
C=CCN1C[C@@H](OC(=O)NCCCCCCCCc2cccs2)C[C@@H]1CNC(=O)c1cc(CCCF)cc(OC)c1OC [(S,R)-trans-2i, (3S,5R)-1-allyl-5-((5-(3-fluoropropyl)-2,3-dimethoxybenzamido)methyl)pyrrolidin-3-yl (8-(thiophen-2-yl)octyl)carbamate]	0.6	2420 ± 975	1470 ± 166	–	–
C=CCN1C[C@H](OC(=O)NCCCCCCCCc2cccs2)C[C@@H]1CNC(=O)c1cc(CCCF)cc(OC)c1OC [(R,R)-cis-2i, (3R,5R)-1-allyl-5-((5-(3-fluoropropyl)-2,3-dimethoxybenzamido)methyl)pyrrolidin-3-yl (8-(thiophen-2-yl)octyl)carbamate]	3.0	722 ± 234	2190 ± 235	–	–
C=CCN1CCC[C@H]1CNC(=O)c1cc(CCCF)cc(OC)c1OC [Fallypride]	–	–	–	–	Ki [4, 7]: 0.02 nM; Distance to D3R ASP110^3.32 [5]: 3.17 ± 0.21 Å
CCN(CCCCNC(=O)c1cc2ccccc2[nH]1)CCNC(=O)c1cc(Br)cc(OC)c1OC [HY-2-93]	–	–	–	–	D3R/D2R, D3R versus D2R selectivity (fold) ([6]; HY-2-93): 180; Ki ([6]; HY-2-93): 0.8 nM
CCN1CCC[C@H]1CNC(=O)c1cc(Br)cc(OC)c1O[11CH3] [[^11C]FLB 457]	–	–	–	–	Ki [4, 7]: 0.022 nM; D2R/D3R ([6]; Figure 1, PET radiotracers): 1.294; Ki ([6]; Figure 1, PET radiotracers): 0.017 nM
C=CCN1C[C@H](OC(=O)NCCCCCCCCCC)C[C@H]1CNC(=O)c1cc(CCCF)cc(OC)c1OC [(R,S)-trans-2d, (3R,5S)-1-allyl-5-((5-(3-fluoropropyl)-2,3-dimethoxybenzamido)methyl)pyrrolidin-3-yl decylcarbamate]	–	2.8 ± 0.5	35.6 ± 8.1	21.2 ± 9.8	–
C=CCN1C[C@H](OC(=O)NCCCCCCCCCC)C[C@@H]1CNC(=O)c1cc(CCCF)cc(OC)c1OC [(R,R)-cis-2d, (3R,5R)-1-allyl-5-((5-(3-fluoropropyl)-2,3-dimethoxybenzamido)methyl)pyrrolidin-3-yl decylcarbamate]	–	1660 ± 433	9600 ± 2360	> 1000	–
C#CCOCCOCCNC(=O)O[C@@H]1C[C@@H](CNC(=O)c2cc(CCCF)cc(OC)c2OC)N(CC=C)C1 [(R,S)-trans-2g, (3R,5S)-1-allyl-5-((5-(3-fluoropropyl)-2,3-dimethoxybenzamido)methyl)pyrrolidin-3-yl (2-(2-(prop-2-yn-1-yloxy)ethoxy)ethyl)carbamate]	2.4	3.7 ± 0.8	9 ± 0.3	–	–
C=CCN1C[C@H](OC(=O)NCCCC)C[C@H]1CNC(=O)c1cc(CCCF)cc(OC)c1OC [(R,S)-trans-2a, (3R,5S)-1-allyl-5-((5-(3-fluoropropyl)-2,3-dimethoxybenzamido)methyl)pyrrolidin-3-yl butylcarbamate]	1.8	2.6 ± 0.3	4.8 ± 0.5	0.8 ± 0.5	–
C=CCN1C[C@H](OC(=O)NCCOCCOCCOCCOC)C[C@H]1CNC(=O)c1cc(CCCF)cc(OC)c1OC [(R,S)-trans-2f, (3R,5S)-1-allyl-5-((5-(3-fluoropropyl)-2,3-dimethoxybenzamido)methyl)pyrrolidin-3-yl (2,5,8,11-tetraoxatridecan-13-yl)carbamate]	2.2	5.3 ± 0.8	11.5 ± 2.6	–	–
CC[11CH2]N1CCO[C@@H]2c3cc(O)ccc3CC[C@H]21 [[^11C]-(+)-PHNO]	–	–	–	–	Ki ([4]; Figure 1, printed with superscript H, read-out: ^HD2R affinity): 0.45 nM
C=CCN1C[C@H](OC(=O)NCCCCCC)C[C@H]1CNC(=O)c1cc(CCCF)cc(OC)c1OC [(R,S)-trans-2b, (3R,5S)-1-allyl-5-((5-(3-fluoropropyl)-2,3-dimethoxybenzamido)methyl)pyrrolidin-3-yl hexylcarbamate]	3.4	1.6 ± 0.4	5.5 ± 1	7.8 ± 5.9	–
C=CCN1C[C@H](OC(=O)NCCOCCOCCOC)C[C@H]1CNC(=O)c1cc(CCCF)cc(OC)c1OC [(R,S)-trans-2e, (3R,5S)-1-allyl-5-((5-(3-fluoropropyl)-2,3-dimethoxybenzamido)methyl)pyrrolidin-3-yl (2-(2-(2-methoxyethoxy)ethoxy)ethyl)carbamate]	2.2	4.1 ± 0.6	9.2 ± 0.8	–	–
C=CCN1C[C@@H](OC(=O)NCCCCCCCCc2cccs2)C[C@H]1CNC(=O)c1cc(CCCF)cc(OC)c1OC [(S,S)-cis-2i, (3S,5S)-1-allyl-5-((5-(3-fluoropropyl)-2,3-dimethoxybenzamido)methyl)pyrrolidin-3-yl (8-(thiophen-2-yl)octyl)carbamate]	–	148 ± 37	68 ± 12	–	–
CCCN(CCC1(O)CC(NC(=O)c2ccc3ccccc3c2)C1)C1CC1c1ccc(Cl)cc1 (stereo not drawn) [CJ-1882]	–	–	–	–	Ki ([6]; CJ-1882): 2.8 nM
CCN1CCC[C@H]1CNC(=O)c1c(O)c(Cl)cc(Cl)c1OC [[^11C]Raclopride, Raclopride]	–	–	–	–	Ki [4, 7]: 1.8 nM; D2R/D3R ([6]; Figure 1, PET radiotracers): 0.514; Ki ([6]; Figure 1, PET radiotracers): 3.5 nM
C=CCN1C[C@H](OC(=O)NCCCCCCCCc2cccs2)C[C@H]1CNC(=O)c1cc(CCCF)cc(OC)c1OC [(R,S)-trans-2i, (3R,5S)-1-allyl-5-((5-(3-fluoropropyl)-2,3-dimethoxybenzamido)methyl)pyrrolidin-3-yl (8-(thiophen-2-yl)octyl)carbamate]	5.6	0.7 ± 0.1	3.7 ± 0.2	–	–
C=CCN1C[C@H](OC(=O)NCCCCCCCC)C[C@H]1CNC(=O)c1cc(CCCF)cc(OC)c1OC [(R,S)-trans-2c, (3R,5S)-1-allyl-5-((5-(3-fluoropropyl)-2,3-dimethoxybenzamido)methyl)pyrrolidin-3-yl octylcarbamate]	4.7	3.4 ± 0.8	15.9 ± 3.3	27.8 ± 21.1	–
C=CCN1C[C@@H](OC(=O)NCCCCCCCCCC)C[C@H]1CNC(=O)c1cc(CCCF)cc(OC)c1OC [(S,S)-cis-2d, (3S,5S)-1-allyl-5-((5-(3-fluoropropyl)-2,3-dimethoxybenzamido)methyl)pyrrolidin-3-yl decylcarbamate]	–	282 ± 69	164 ± 29	608 ± 231	–
